In patent US7591995B2, “Cobalamin conjugates useful as imaging and therapeutic agents” (Mayo Foundation for Medical Education and Research, priority 1999, dated 2009):

How the values were obtained:
[1] = test system: unsaturated B12 binding capacity (UBBC); conditions: relative to cyanocobalamin; J. Nucl. Med. 38, 717-723 (1997), US 5,739,313; cited from earlier work
[2] = test system: unsaturated B12 binding capacity (UBBC); conditions: relative to cyanocobalamin
[3] = Specific activity of radiolabeled cobalamin DTPA conjugates; conditions: poly-DTPA complex, increased versus mono-DTPA compounds

Substance	in vitro biological activity (UBBC), comparison to cyanocobalamin [1]	in vitro biological activity (UBBC) when compared to cyanocobalamin [2]	specific activity [3]
cyanocobalamin-DTPA	66.4%		
cyanocobalamin-poly-L-lysine		92%	
cyanocobalamin-poly-L-lysine-polyDTPA		43.4%	4.5 mCi
